Here are results for 34 compounds from ChEMBL document CHEMBL3351221, “Synthetic derivatives of aromatic abietane diterpenoids and their biological activities” (Eur J Med Chem, 2014).

By IC50 is commonly meant the point on the concentration scale where inhibition reaches its midpoint. What is called MIC is the smallest concentration in the dilution series that meets the test's criterion for growth inhibition. By inhibition in vivo is commonly meant the change of the read-out against control, counted positive when it falls. For orientation: inhibition means the relative decrease from the control value, in per cent.

In brackets after ≈: the same amount, converted by molar mass.

Series [1] is described as follows: Cytotoxicity against human SKMES1 cells. The format is functional, cell-based. The following applies: SK-MES-1.
For a further series, the system named is Escherichia coli. The series is described as follows: Antimicrobial activity against Escherichia coli. The format is functional.
Another series concerns Pseudomonas fluorescens. The experiment in a line: Antimicrobial activity against Pseudomonas fluorescens. The format is functional.
The test system of series [2] is Mus musculus. The series is described as follows: Gastroprotective activity in mouse assessed as reduction in HCl/EtOH-induced gastric lesions at 10 mg/kg. The class given is functional. Conditions: Stomach.
For series [3], the system named is SMMC-7721. The series is described as follows: Cytotoxicity against human SMMC7721 cells assessed as growth inhibition at 0.1 uM after 72 hrs. The class given is functional. The following applies: SMMC-7721, 72 h.
Series [4] relates to Rattus norvegicus. The series is described as follows: Antiulcer activity in rat assessed as inhibition of pepsin activity at 100 mg/kg. The class given is functional.
The subject of the next series is Fusarium graminearum. The series is described as follows: Antimicrobial activity against Fusarium graminearum assessed as inhibition of microbial growth at 50 ug/ml. The format is functional.
Another series relates to Leishmania infantum. The series is described as follows: Antimicrobial activity against Leishmania infantum. The class given is functional, organism-based.
For a further series, the system named is Leishmania braziliensis. The series is described as follows: Antimicrobial activity against Leishmania braziliensis. The format is functional, organism-based.
The subject of series [5] is Staphylococcus aureus. The series is described as follows: Antimicrobial activity against Staphylococcus aureus. The format is functional.
In a further series the test system is Bacillus subtilis. The series is described as follows: Antimicrobial activity against Bacillus subtilis. The class given is functional.
In series [6] the test system is Staphylococcus aureus. The experiment in a line: Antimicrobial activity against methicillin-resistant Staphylococcus aureus. The format is functional.
Another series deals with Enterococcus. The experiment in a line: Antimicrobial activity against Vancomycin-resistant Enterococcus. The class given is functional.
In series [7] the test system is Botryosphaeria berengeriana. The series is described as follows: Antimicrobial activity against Physalospora pyricola assessed as inhibition of microbial growth at 50 ug/ml. The format is functional.
The target in the next series is Androgen receptor (Homo sapiens, UniProt P10275). The series is described as follows: Binding affinity to androgen receptor (unknown origin).
The nature of series [8]: Cytotoxicity against human Hey-1B cells. The class given is functional, cell-based.
Series [9] in a line: Cytotoxicity against human PC3 cells. Conditions: PC-3. The format is functional, cell-based.
Series [10] can be described thus: Antioxidant activity assessed as DPPH radical scavenging activity. The format is physicochemical.
In series [11] the test system is SMMC-7721. The series is described as follows: Cytotoxicity against human SMMC7721 cells assessed as growth inhibition at 0.1 uM. The format is functional.
The target in series [12] is Fibroblast growth factor receptor 1 (Homo sapiens, UniProt P11362). The experiment in a line: Inhibition of FGFR1 (unknown origin).
In another series the test system is superoxide anion radical. The series is described as follows: Antioxidant activity assessed as superoxide anion radical scavenging activity relative to untreated control.
In series [13] the test system is Mus musculus. The experiment in a line: Gastroprotective activity in mouse assessed as reduction in HCl/EtOH-induced gastric lesions at 100 mg/kg. The following applies: Stomach. The format is functional.
The test system of series [14] is Rattus norvegicus. The series is described as follows: Antiulcer activity in rat assessed as inhibition of secretion at 30 mg/kg, ip. The format is functional. Conditions: route intraperitoneal.
Series [15] is described as follows: Cytotoxicity against human SKBR3 cells. The format is functional, cell-based. Conditions: SK-BR-3.
Series [16] in a line: Cytotoxicity against human AZ-521 cells. The format is functional, cell-based.
Series [17] can be described thus: Cytotoxicity against human HL60 cells. The format is functional, cell-based. Conditions: HL-60.
A further series has as its system A549. The experiment in a line: Cytotoxicity against human A549 cells. The class given is functional, cell-based.
A further series relates to Fusarium oxysporum. The experiment in a line: Antimicrobial activity against Fusarium oxysporum assessed as inhibition of microbial growth at 50 ug/ml. The class given is functional.
For another series, the system named is EJ. The experiment in a line: Cytotoxicity against human EJ cells. The format is functional, cell-based. The following applies: pooled result: one value given for 4 cell lines, strains, targets or settings.
The next series relates to HepG2. The series is described as follows: Cytotoxicity against human HepG2 cells. The format is functional, cell-based.
For series [18], the system named is SMMC-7721. The experiment in a line: Cytotoxicity against human SMMC7721 cells. The format is functional, cell-based.

Androgen receptor, sequence (P10275 whole entry): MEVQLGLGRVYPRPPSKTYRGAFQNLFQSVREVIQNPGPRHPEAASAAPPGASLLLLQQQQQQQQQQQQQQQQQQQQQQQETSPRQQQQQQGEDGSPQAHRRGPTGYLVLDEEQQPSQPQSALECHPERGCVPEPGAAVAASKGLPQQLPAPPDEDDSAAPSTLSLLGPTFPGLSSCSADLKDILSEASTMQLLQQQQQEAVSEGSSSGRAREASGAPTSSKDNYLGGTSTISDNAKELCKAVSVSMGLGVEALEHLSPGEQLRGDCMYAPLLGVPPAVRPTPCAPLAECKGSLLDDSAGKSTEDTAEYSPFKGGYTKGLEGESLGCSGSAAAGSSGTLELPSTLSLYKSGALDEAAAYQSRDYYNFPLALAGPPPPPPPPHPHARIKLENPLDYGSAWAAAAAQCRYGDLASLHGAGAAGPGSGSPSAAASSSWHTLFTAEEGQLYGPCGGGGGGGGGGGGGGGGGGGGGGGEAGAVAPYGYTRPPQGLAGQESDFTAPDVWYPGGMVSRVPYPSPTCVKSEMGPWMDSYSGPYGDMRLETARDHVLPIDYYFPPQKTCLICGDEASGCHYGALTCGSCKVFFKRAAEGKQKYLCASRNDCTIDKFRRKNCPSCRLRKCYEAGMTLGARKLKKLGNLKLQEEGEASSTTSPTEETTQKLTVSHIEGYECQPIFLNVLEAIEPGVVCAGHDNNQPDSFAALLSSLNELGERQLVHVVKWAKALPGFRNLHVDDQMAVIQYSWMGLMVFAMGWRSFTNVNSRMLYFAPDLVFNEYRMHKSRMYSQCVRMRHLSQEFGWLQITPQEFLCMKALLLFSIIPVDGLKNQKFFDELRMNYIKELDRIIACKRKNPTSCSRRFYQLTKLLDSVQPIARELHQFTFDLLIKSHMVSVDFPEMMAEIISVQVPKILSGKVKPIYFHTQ
Fibroblast growth factor receptor 1, sequence (P11362 whole entry): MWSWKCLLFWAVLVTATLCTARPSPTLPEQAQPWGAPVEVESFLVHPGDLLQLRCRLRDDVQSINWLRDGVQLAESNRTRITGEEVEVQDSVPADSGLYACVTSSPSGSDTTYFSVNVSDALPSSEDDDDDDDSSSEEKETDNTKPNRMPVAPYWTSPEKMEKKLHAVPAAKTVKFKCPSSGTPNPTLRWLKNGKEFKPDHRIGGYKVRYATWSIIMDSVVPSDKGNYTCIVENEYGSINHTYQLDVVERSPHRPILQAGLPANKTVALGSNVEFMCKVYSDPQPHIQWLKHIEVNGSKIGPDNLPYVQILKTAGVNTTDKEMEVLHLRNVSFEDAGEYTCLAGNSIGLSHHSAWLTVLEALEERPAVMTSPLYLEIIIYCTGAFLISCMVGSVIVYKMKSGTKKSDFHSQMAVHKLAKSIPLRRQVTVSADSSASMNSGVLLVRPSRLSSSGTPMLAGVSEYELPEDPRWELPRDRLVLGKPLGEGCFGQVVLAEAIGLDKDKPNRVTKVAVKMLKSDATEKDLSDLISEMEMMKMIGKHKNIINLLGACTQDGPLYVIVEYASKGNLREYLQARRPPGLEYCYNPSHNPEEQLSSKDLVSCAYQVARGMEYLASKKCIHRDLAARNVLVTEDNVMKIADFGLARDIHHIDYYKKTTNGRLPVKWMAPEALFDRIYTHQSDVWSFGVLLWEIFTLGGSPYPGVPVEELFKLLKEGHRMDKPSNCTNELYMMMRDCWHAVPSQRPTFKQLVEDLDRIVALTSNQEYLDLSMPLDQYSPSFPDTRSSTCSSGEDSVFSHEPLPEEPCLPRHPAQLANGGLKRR

Turning to `COc1cc([C@@H]2c3cc4c(cc3[C@@H](O[C@@H]3O[C@@H]5CO[C@@H](C)O[C@H]5[C@H](O)[C@H]3O)[C@H]3COC(=O)[C@H]23)OCO4)cc(OC)c1O` [ETOPOSIDE], in [1], the IC50 was found to be 1.83 µM.
Turning to `CC(C)c1ccc2c(c1)CC[C@H]1[C@](C)(C(=O)N/N=C/c3ccc(Cl)c([N+](=O)[O-])c3)CCC[C@]21C`, the MIC against Escherichia coli and with Pseudomonas fluorescens was 3.9 µg/mL (≈ 8.09 µM) each time.
For the compound `COC(=O)[C@]12CCCC(C)(C)[C@@H]1CCc1cc(C(C)C)c(OC(=O)Cc3cc4ccccc4[nH]3)c(OC(=O)Cc3cc4ccccc4[nH]3)c12`, the inhibition in vivo at 10 mg/kg in the series on Mus musculus [2] came out at 73%.
On to `CCOP(=O)(OCC)C(NC[C@]1(C)CCC[C@]2(C)c3ccc(C(C)C)cc3CC[C@@H]12)c1ccc([N+](=O)[O-])cc1O` (stereo partly specified), for which the inhibition at 0.1 µM in the series with SMMC-7721 [3] is 99%.
`CCCOC(=O)[C@]12CCCC(C)(C)[C@@H]1CCc1cc(C(C)C)c(OC)c(OC(=O)CCC)c12`: the inhibition in vivo at 10 mg/kg in the series with Mus musculus [2] is 73%.
Regarding `CC(C)c1cc2c(cc1S(=O)(=O)O)[C@@]1(C)CCC[C@@](C)(C(=O)O)[C@@H]1CC2`, the inhibition in vivo at 100 mg/kg in the series on Rattus norvegicus [4] (Rattus norvegicus) amounted to 92%.
For `CC(C)c1ccc2c(c1)CC[C@H]1[C@](C)(c3nnc4s/c(=C\c5ccc(O)cc5)c(=O)n34)CCC[C@]21C`, the inhibition at 50 µg/mL in the series on Fusarium graminearum was 70.9%.
Consider `CC(C)c1ccc2c(c1)CC[C@H]1[C@](C)(C(=O)N/N=C/c3cc(Cl)ccc3O)CCC[C@]21C`, for which the MIC with Escherichia coli and against Pseudomonas fluorescens was 3.9 µg/mL (≈ 8.61 µM) each time.
Consider `CC(C)c1cc2c(cc1O)[C@@]1(C)CCC[C@](C)(CO)[C@@H]1CC2`, for which the half-maximal inhibitory concentration (IC50) in the series on Leishmania infantum and in the series with Leishmania braziliensis was 14 µM in each case.
Take `CC(C)c1ccc2c(c1)CC[C@H]1[C@](C)(C(=O)N/N=C/c3ccc([N+](=O)[O-])o3)CCC[C@]21C`: the MIC was found to be 3.9 µg/mL (≈ 8.91 µM) with Escherichia coli, 1.9 µg/mL (≈ 4.34 µM) against Staphylococcus aureus [5], 3.9 µg/mL (≈ 8.91 µM) in the series on Pseudomonas fluorescens and 1.9 µg/mL (≈ 4.34 µM) in the series with Bacillus subtilis.
Turning to `CC(C)c1cc2c(cc1O)[C@@]1(C)CCCC(C)(C)[C@@H]1C(=O)C2`, the MIC against Staphylococcus aureus [6] and with Enterococcus was 4 µg/mL (≈ 13.3 µM) in each case.
`COc1ccc(/C=c2\sc3nnc([C@]4(C)CCC[C@]5(C)c6ccc(C(C)C)cc6CC[C@@H]45)n3c2=O)cc1`: the inhibition at 50 µg/mL in series [7] came to 56.8%.
For the compound `CC(C)c1ccc2c(c1)C(=O)C[C@H]1[C@](C)(CNC(=O)c3ccccc3)CCC[C@]21C`, the figures for the IC50 (at Androgen receptor; in series [8]; in [9]) were 83.8 µM, 11.3 µg/mL (≈ 28 µM) and 5.7 µg/mL, respectively.
As for `O=C1O[C@H]([C@@H](O)CO)C(O)=C1O` [ASCORBIC ACID], the half-maximal inhibitory concentration (IC50) in [10] was 236 mg/L (≈ 1340 µM).
On to `CC(C)c1ccc2c(c1)CC[C@H]1[C@](C)(CNC(c3ccc(F)cc3)P(=O)(Oc3ccccc3)Oc3ccccc3)CCC[C@]21C` (stereo partly specified), for which the inhibition at 0.1 µM with SMMC-7721 [11] was determined as 75%.
As to `Cc1c(OCC(F)(F)F)ccnc1C[S+]([O-])c1nc2ccccc2[nH]1` (stereo unspecified) [LANSOPRAZOLE], the inhibition in vivo at 10 mg/kg in the series with Mus musculus [2] is 64%.
In series [12], `CC(C)c1ccc2c(c1)CC[C@H]1[C@](C)(C/N=C/c3c(O)ccc4ccccc34)CCC[C@]21C` returned an IC50 of 1200 nM.
With `COC(=O)[C@@]1(C)CCC[C@]2(C)c3cc(O)c(C(C)(C)O)cc3CC[C@@H]12`, the concentration for half-maximal inhibition (IC50) in the series on Leishmania infantum and in the series on Leishmania braziliensis was 14 µM in each case.
Regarding `NCC[C@H](O)C(=O)N[C@@H]1C[C@H](N)[C@@H](O[C@H]2O[C@H](CN)[C@@H](O)[C@H](O)[C@H]2O)[C@H](O)[C@H]1O[C@H]1O[C@H](CO)[C@@H](O)[C@H](N)[C@H]1O` [AMIKACIN], the minimal inhibitory concentration (MIC) in the series with Staphylococcus aureus [5] and against Bacillus subtilis was 0.9 µg/mL (≈ 1.54 µM) each time.
`CC(C)c1cc2c(c(O)c1O)[C@@]1(C)CCCC(C)(C)C1=CC2=O` [SALVINOLONE]: the minimal inhibitory concentration (MIC) against Staphylococcus aureus [6] and against Enterococcus was 4 µg/mL (≈ 12.7 µM) in each case.
`COC(=O)[C@]12CCCC(C)(C)[C@@H]1CCc1cc(C(C)C)c(OC(=O)c3ccccc3)c(OC(=O)c3ccccc3)c12`: the inhibition in vivo at 10 mg/kg with Mus musculus [2] stood at 73%.
As to `CC(C)c1ccc2c(c1)C(=O)C[C@H]1[C@](C)(CNC(=O)c3cc(O)c(O)c(O)c3)CCC[C@]21C`, the “inhibition (INH)” value in the series with superoxide anion radical was 38.18%. Besides, in series [10], the IC50 is given as 2 mg/L (≈ 4.43 µM).
For `COC(=O)[C@@]1(C)CCC[C@]2(C)c3cc(O)c(C(C)C)cc3CC[C@@H]12`, the IC50 in the series with Leishmania infantum and in the series on Leishmania braziliensis was 14 µM each time.
For the compound `CC(C)c1cc2c(cc1O)[C@@]1(C)CCCC(C)(C)[C@@H]1[C@H](O)C2`, the minimal inhibitory concentration (MIC) in the series with Staphylococcus aureus [6] and in the series with Enterococcus was 4 µg/mL (≈ 13.2 µM) each time.
`CC(C)c1ccc2c(c1)CC[C@H]1[C@](C)(C(=O)O)CCC[C@]21C` [DEHYDROABIETIC ACID]: in the series with Mus musculus [13], the inhibition in vivo at 100 mg/kg amounted to 59%. In addition, in the series with Rattus norvegicus [14], the inhibition in vivo at 30 mg/kg stood at 22%.
Turning to `COC(=O)[C@H](Cc1ccc(O)cc1)NC(=O)[C@]1(C)CCC[C@]2(C)c3ccc(C(C)C)cc3CC[C@@H]12`, the half-inhibitory concentration (IC50) in series [15] amounted to 8.1 µM; in [16], 3.9 µM; in series [17], 2300 nM; in the series with A549, 7.1 µM.
On to `CC(C)c1ccc2c(c1)CC[C@H]1[C@](C)(c3nnc4s/c(=C\c5ccccc5)c(=O)n34)CCC[C@]21C`, for which the inhibition at 50 µg/mL in the series with Fusarium oxysporum came to 51.9%.
`CC(C)c1cc2c(cc1S(=O)(=O)[O-])[C@@]1(C)CCC[C@@](C)(C(=O)[O-])[C@@H]1CC2.[Na+].[Na+]`: the “inhibition (INH)” value with Rattus norvegicus [4] is given as 92%.
`C=CC1CN2CCC1CC2C(NC(=S)NC[C@]1(C)CCC[C@]2(C)c3ccc(C(C)C)cc3CC[C@@H]12)c1ccnc2ccc(OC)cc12` (stereo partly specified): the half-inhibitory concentration (IC50) (in series [9]; in the series on EJ) was 2070 nM each time.
Regarding `CC(C)c1ccc2c(c1)CC[C@H]1[C@](C)(NC(N)=O)CCC[C@]21C`, the values for the IC50 in the series on HepG2 and in the series with SMMC-7721 [18] were 1.21 µg/mL (≈ 3.85 µM) and 8.8 µM, respectively.
In the series on HepG2, `CC(C)c1cc2c(cc1[N+](=O)[O-])[C@@]1(C)CCC[C@@](C)(CNC(=O)c3ccccc3)[C@@H]1CC2=O` registered an IC50 of 67.9 µg/mL (≈ 151 µM).
Turning to `CC(C)c1ccc2c(c1)CC[C@H]1[C@](C)(CNC(c3ccc(C(F)(F)F)cc3)P(=O)(Oc3ccccc3)Oc3ccccc3)CCC[C@]21C` (stereo partly specified), in the series on SMMC-7721 [11], the inhibition at 0.1 µM worked out at 79%.
`CC(C)c1ccc2c(c1)CC[C@H]1[C@](C)(COC(=O)CCc3cn(-c4ccccc4)nn3)CCC[C@]21C` came in with a half-inhibitory concentration (IC50) in series [1] of 6.1 µM.
Take `CC(C)c1cc2c(c(O)c1O)[C@@]1(C)CCCC(C)(C)[C@@H]1CC2=O` [DEMETHYLCRYPTOJAPONOL]: the MIC in the series on Staphylococcus aureus [6] and in the series on Enterococcus was 4 µg/mL (≈ 12.6 µM) in each case.
